Reference: ChEMBL document CHEMBL1770065, “Discovery of a clinical candidate from the structurally unique dioxa-bicyclo[3.2.1]octane class of sodium-dependent glucose cotransporter 2 inhibitors” (J Med Chem, 2011)

How the values were obtained:
[1] = biological target: T1, Solute carrier family 22 member 2 (Homo sapiens, UniProt O15244); test: Inhibition of human OCT2
T1 sequence (O15244 whole entry): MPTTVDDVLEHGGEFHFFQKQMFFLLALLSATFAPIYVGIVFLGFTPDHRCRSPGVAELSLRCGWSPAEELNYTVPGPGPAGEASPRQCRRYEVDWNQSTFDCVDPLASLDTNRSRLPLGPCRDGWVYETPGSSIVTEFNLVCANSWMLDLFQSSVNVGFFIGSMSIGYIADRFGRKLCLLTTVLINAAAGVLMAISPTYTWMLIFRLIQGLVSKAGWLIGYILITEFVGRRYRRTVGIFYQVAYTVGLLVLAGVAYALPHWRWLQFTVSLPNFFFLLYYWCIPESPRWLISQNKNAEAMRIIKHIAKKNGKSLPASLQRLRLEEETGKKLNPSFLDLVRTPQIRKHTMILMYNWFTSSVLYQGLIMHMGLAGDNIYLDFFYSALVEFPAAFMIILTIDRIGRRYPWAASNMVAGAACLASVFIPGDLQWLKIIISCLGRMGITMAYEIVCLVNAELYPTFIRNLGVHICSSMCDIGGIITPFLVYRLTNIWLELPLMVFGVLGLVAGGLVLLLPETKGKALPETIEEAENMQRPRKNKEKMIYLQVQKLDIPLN

Rattus norvegicus [2] = test: Antidiabetic activity in Sprague-Dawley rat assessed as increase of urinary glucose excretion assessed per 200 gram of body weight at 30 mg/kg, po after 24 hrs; format: functional, Urine
Rattus norvegicus [3] = test: fAUC (0 to 24 hrs) in Sprague-Dawley rat at 30 mg/kg, po after 24 hrs; format: ADME, organism-based; parameters: dose 30 mg/kg, route oral; conditions: in vivo
[4] = biological target: T2, Sodium/glucose cotransporter 2 (Rattus norvegicus, UniProt P53792); test: Inhibition of rat SGLT2
T2 sequence (P53792 whole entry): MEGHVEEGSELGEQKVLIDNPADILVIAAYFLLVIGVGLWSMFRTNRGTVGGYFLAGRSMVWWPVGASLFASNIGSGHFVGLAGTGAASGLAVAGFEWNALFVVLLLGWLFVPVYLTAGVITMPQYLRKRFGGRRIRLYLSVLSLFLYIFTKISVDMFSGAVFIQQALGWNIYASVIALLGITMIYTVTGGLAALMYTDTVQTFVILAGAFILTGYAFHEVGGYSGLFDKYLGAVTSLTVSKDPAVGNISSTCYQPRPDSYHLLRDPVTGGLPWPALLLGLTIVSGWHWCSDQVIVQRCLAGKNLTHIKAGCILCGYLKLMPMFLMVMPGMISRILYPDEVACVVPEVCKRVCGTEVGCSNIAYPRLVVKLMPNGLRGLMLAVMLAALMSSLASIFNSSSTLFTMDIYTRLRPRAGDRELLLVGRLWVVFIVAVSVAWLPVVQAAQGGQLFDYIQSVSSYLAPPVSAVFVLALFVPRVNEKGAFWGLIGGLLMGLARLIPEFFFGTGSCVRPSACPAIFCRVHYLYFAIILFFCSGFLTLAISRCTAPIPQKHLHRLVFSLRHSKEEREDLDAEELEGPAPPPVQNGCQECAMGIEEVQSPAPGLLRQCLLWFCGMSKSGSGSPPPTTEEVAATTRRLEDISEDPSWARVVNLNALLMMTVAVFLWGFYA

[5] = biological target: T3, Sodium/glucose cotransporter 2 (Homo sapiens, UniProt P31639); test: Inhibition of human SGLT2 expressed in CHO cells assessed as inhibition of methyl alpha-D-glucopyranoside uptake after 1 hr; format: cell-based
T3 sequence (P31639 whole entry): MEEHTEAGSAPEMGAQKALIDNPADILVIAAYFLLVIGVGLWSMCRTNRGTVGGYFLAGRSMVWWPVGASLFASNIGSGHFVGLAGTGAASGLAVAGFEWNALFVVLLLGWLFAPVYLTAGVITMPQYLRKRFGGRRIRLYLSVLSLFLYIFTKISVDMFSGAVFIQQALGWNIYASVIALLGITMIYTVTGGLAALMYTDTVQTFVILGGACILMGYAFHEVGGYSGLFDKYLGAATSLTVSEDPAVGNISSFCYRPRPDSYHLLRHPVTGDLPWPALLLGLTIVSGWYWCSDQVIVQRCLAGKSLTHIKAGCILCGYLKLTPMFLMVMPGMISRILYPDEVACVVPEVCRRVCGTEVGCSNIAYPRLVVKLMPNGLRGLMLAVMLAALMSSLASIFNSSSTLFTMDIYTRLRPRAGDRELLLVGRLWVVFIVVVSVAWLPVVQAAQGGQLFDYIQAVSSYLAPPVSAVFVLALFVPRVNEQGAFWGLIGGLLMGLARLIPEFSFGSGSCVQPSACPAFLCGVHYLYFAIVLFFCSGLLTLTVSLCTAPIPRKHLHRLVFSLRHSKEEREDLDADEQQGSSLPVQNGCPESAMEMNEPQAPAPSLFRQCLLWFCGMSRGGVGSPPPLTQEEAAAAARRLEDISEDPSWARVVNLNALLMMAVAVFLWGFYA

Plasma = test: Fraction unbound in rat plasma at 1000 ng/mL by equilibrium dialysis method; format: ADME, cell-free

`CCOc1ccc(Cc2cc([C@]34OC[C@](CO)(O3)[C@@H](O)[C@H](O)[C@H]4O)ccc2Cl)cc1` [ERTUGLIFLOZIN] was tested, and the “inhibition (INH)” value [1] was “Not Active”, the Activity (Rattus norvegicus [2]) was 2554 mg and the fAUC (Rattus norvegicus [3]) was 4280 ng·h/mL. For the same molecule, the IC50 [4] was 1.15 nM, the IC50 [5] was 0.877 nM and the Fu (Plasma) was 4%.
